pEC50: −log10 of the molar value.
System: Cell Necrosis
Assay: Cell necrosis assay / cell viability assay (necrosis inhibitor activity)
Type: cell-based
Conditions: not given

Structure (SMILES) | activity based on the cell activity assay
O=C1COc2cc(F)c(OC3CN(C(=O)N4N=CC[C@@H]4c4ccccc4)C3)cc2N1 [(R)-7-fluoro-6-((1-(5-phenyl-4,5-dihydro-1H-pyrazole-1-carbonyl)azetidin-3-yl)oxy)-2H-benzo[b][1,4]oxazin-3(4H)-one] | weak activity

Same assay, conditions: necrosis inhibitor activity; EC data for 14-191 extrapolated; read-out: EC50

Structure (SMILES) | pEC50
O=C(N1CC(Cc2ccc(F)cc2)C1)N1N=CCC1c1ccccc1 (stereo not drawn) [Compound 42, (3-(4-fluorobenzyl)azetidin-1-yl)(5-phenyl-4,5-dihydro-1H-pyrazol-1-yl)methanone] | 6.00 to 9.00
C[C@H]1CN(c2ncccn2)CCN1C(=O)N1N=CCC1c1ccccc1 (stereo in doubt) [Compound 112A, (S)-(2-methyl-4-(pyrimidin-2-yl)piperazin-1-yl)(5-phenyl-4,5-dihydro-1H-pyrazol-1-yl)methanone] | 6.00 to 9.00
NC(=O)c1cc(OC2CN(C(=O)N3N=CCC3c3cc(F)cc(F)c3)C2)ccc1F (stereo not drawn) [Compound 159] | 6.00 to 9.00
O=C(N1CCN(c2ncc(F)cn2)CC1)N1N=CCC1c1cccc(F)c1 (stereo not drawn) [Compound 100, (5-(3-fluorophenyl)-4,5-dihydro-1H-pyrazol-1-yl)(4-(5-fluoropyrimidin-2-yl)piperazin-1-yl)methanone] | 6.00 to 9.00
O=C(N1CC(=Cc2ccc3cc[nH]c3c2)C1)N1N=CCC1c1cc(F)cc(F)c1 (stereo not drawn) [Compound 184] | 6.00 to 9.00
CNC(=O)c1cc(OC2CN(C(=O)N3N=CCC3c3cc(F)cc(F)c3)C2)ccc1Cl (stereo not drawn) [Compound 161] | 6.00 to 9.00
N#Cc1ccc(OC2CN(C(=O)N3N=CCC3c3cc(F)cc(F)c3)C2)cc1F (stereo not drawn) [Compound 137, 4-((1-(5-(3,5-difluorophenyl)-4,5-dihydro-1H-pyrazole-1-carbonyl)azetidin-3-yl)oxy)-2-fluorobenzonitrile] | 6.00 to 9.00
O=C(N1CC(Oc2cc(Br)ncn2)C1)N1N=CCC1c1ccccc1 (stereo not drawn) [Compound 127, (3-((6-bromopyrimidin-4-yl)oxy)azetidin-1-yl)(5-phenyl-4,5-dihydro-1H-pyrazol-1-yl)methanone] | 6.00 to 9.00
O=C(N1CC(Cc2cccc(Cl)c2)C1)N1N=CCC1c1ccccc1 (stereo not drawn) [Compound 48, (3-(3-chlorobenzyl)azetidin-1-yl)(5-phenyl-4,5-dihydro-1H-pyrazol-1-yl)methanone] | 6.00 to 9.00
CNC(=O)c1cccc(OC2CN(C(=O)N3N=CCC3c3cc(F)cc(F)c3)C2)c1 (stereo not drawn) [Compound 163] | 6.00 to 9.00
O=C(N1CC(Oc2cc(F)ccc2F)C1)N1N=CCC1c1ccccc1 (stereo not drawn) [Compound 128, (3-(2,5-difluorophenoxy)azetidin-1-yl)(5-phenyl-4,5-dihydro-1H-pyrazol-1-yl)methanone] | 6.00 to 9.00
O=C(N1CC(=Cc2cccc(F)c2)C1)N1N=CCC1c1ccccc1 (stereo not drawn) [Compound 45, (3-(3-fluorobenzylidene)azetidin-1-yl)(5-phenyl-4,5-dihydro-1H-pyrazol-1-yl)methanone] | 6.00 to 9.00
O=C(N1CC(Cc2ccc(F)cc2F)C1)N1N=CCC1c1cc(F)cc(F)c1 (stereo not drawn) [Compound 54, (3-(2,4-difluorobenzyl)azetidin-1-yl)(5-(3,5-difluorophenyl)-4,5-dihydro-1H-pyrazol-1-yl)methanone] | 6.00 to 9.00
O=C(N1CC(Oc2ccccc2F)C1)N1N=CC[C@H]1c1cc(F)cc(F)c1 [Compound 144] | 6.00 to 9.00
C[C@@H]1CN(c2ncc(F)cn2)C[C@@H](C)N1C(=O)N1N=CCC1c1ccccc1 (stereo partly drawn) [Compound 122, ((2R,6R)-4-(5-fluoropyrimidin-2-yl)-2,6-dimethylpiperazin-1-yl)(5-phenyl-4,5-dihydro-1H-pyrazol-1-yl)methanone] | 5.00 to 6.00
Cc1ccccc1C=C1CN(C(=O)N2N=CCC2c2ccccc2)C1 (stereo not drawn) [Compound 38, (3-(2-methylbenzylidene)azetidin-1-yl)(5-phenyl-4,5-dihydro-1H-pyrazol-1-yl)methanone] | 6.00 to 9.00
O=C(N1CC(Oc2ccc(=O)[nH]c2)C1)N1N=CCC1c1cc(F)cc(F)c1 (stereo not drawn) [Compound 186] | 6.00 to 9.00

Same assay, conditions: necrosis inhibitor activity; compounds outside 14-191; read-out: EC50

Structure (SMILES) | pEC50
O=C(N1CC(Oc2nc3ccccc3s2)C1)N1N=CCC1c1cc(F)cc(F)c1 (stereo not drawn) [Compound 276, (3-(benzo[d]thiazol-2-yloxy)azetidin-1-yl)(5-(3,5-difluorophenyl)-4,5-dihydro-1H-pyrazol-1-yl)methanone] | 6.00 to 9.00
N#Cc1ccnc(O[C@@H]2CCN(C(=O)N3N=CC[C@H]3c3cc(F)cc(F)c3)C2)c1 [Compound 336, 2-(((R)-1-((S)-5-(3,5-difluorophenyl)-4,5-dihydro-1H-pyrazole-1-carbonyl)pyrrolidin-3-yl)oxy)isonicotinonitrile] | 6.00 to 9.00
CNc1cccc(C=C2CN(C(=O)N3N=CC[C@H]3c3cc(F)cc(F)c3)C2)c1 [Compound 317, (S)-(5-(3,5-difluorophenyl)-4,5-dihydro-1H-pyrazol-1-yl)(3-(3-(methylamino)benzylidene)azetidin-1-yl)methanone] | 6.00 to 9.00
NC(=O)c1cc(F)c(OC2CN(C(=O)N3N=CC[C@H]3c3cc(F)cc(F)c3)C2)c(F)c1 [Compound 222, (S)-4-((1-(5-(3,5-difluorophenyl)-4,5-dihydro-1H-pyrazole-1-carbonyl)azetidin-3-yl)oxy)-3,5-difluorobenzamide] | 6.00 to 9.00
O=C(N1CC(=Cc2cc(NC3CC3)ncc2F)C1)N1N=CC[C@H]1c1cc(F)cc(F)c1 [Compound 326, (S)-(3-((2-(cyclopropylamino)-5-fluoropyridin-4-yl)methylene)azetidin-1-yl)(5-(3,5-difluorophenyl)-4,5-dihydro-1H-pyrazol-1-yl)methanone] | 6.00 to 9.00
NC(=O)c1cc(O[C@@H]2CCN(C(=O)N3N=CC[C@H]3c3cc(F)cc(F)c3)C2)ncn1 [Compound 361] | 6.00 to 9.00
O=C(Nc1nc(N2CCN(C(=O)N3N=CC[C@H]3c3cc(F)cc(F)c3)CC2)ncc1F)C1CCC1 [Compound 328, (S)—N-(2-(4-(5-(3,5-difluorophenyl)-4,5-dihydro-1H-pyrazole-1-carbonyl)piperazin-1-yl)-5-fluoropyrimidin-4-yl)cyclobutanecarboxamide] | 6.00 to 9.00
CNc1cccc(OC2CN(C(=O)N3N=CCC3c3cc(F)cc(F)c3)C2)c1 (stereo not drawn) [Compound 231, (5-(3,5-difluorophenyl)-4,5-dihydro-1H-pyrazol-1-yl)(3-(3-(methylamino)phenoxy)azetidin-1-yl)methanone] | 6.00 to 9.00
O=C(N1CC(=Cc2cc3[nH]nc(Cl)c3cc2F)C1)N1N=CC[C@H]1c1cc(F)cc(F)c1 [Compound 285, (S)-(3-((3-chloro-5-fluoro-1H-indazol-6-yl)methylene)azetidin-1-yl)(5-(3,5-difluorophenyl)-4,5-dihydro-1H-pyrazol-1-yl)methanone] | 6.00 to 9.00
O=C1Nc2cc(OC3CN(C(=O)N4N=CC[C@H]4c4cc(F)cc(F)c4)C3)c(F)cc2OC1CCO (stereo partly drawn) [Compound 246, 6-((1-((S)-5-(3,5-difluorophenyl)-4,5-dihydro-1H-pyrazole-1-carbonyl)azetidin-3-yl)oxy)-7-fluoro-2-(2-hydroxyethyl)-2H-benzo[b][1,4]oxazin-3(4H)-one] | 6.00 to 9.00
COc1nc(N2CCN(C(=O)N3N=CC[C@H]3c3cc(F)cc(F)c3)CC2)ncc1F [Compound 271, (S)-(5-(3,5-difluorophenyl)-4,5-dihydro-1H-pyrazol-1-yl)(4-(5-fluoro-4-methoxypyrimidin-2-yl)piperazin-1-yl)methanone] | 6.00 to 9.00
Nc1ccn(CC2CN(C(=O)N3N=CC[C@H]3c3cc(F)cc(F)c3)C2)c1 [Compound 298, (S)-(3-((3-amino-H-pyrrol-1-yl)methyl)azetidin-1-yl)(5-(3,5-difluorophenyl)-4,5-dihydro-1H-pyrazol-1-yl)methanone] | 6.00 to 9.00
O=C1COc2cc(F)c(O[C@@H]3CCN(C(=O)N4N=CC[C@H]4c4cc(F)cc(F)c4)C3)cc2N1 [Compound 196] | 6.00 to 9.00
O=C1COc2cc(F)c(OC3CN(C(=O)N4N=CC[C@H]4c4cncc(F)c4)C3)cc2N1 [Compound 194, (S)-7-fluoro-6-((1-(5-(5-fluoropyridin-3-yl)-4,5-dihydro-1H-pyrazole-1-carbonyl)azetidin-3-yl)oxy)-2H-benzo[b][1,4]oxazin-3(4H)-one] | 6.00 to 9.00
COc1cccc(O[C@@H]2CCN(C(=O)N3N=CC[C@H]3c3cc(F)cc(F)c3)C2)n1 [Compound 356, ((S)-5-(3,5-difluorophenyl)-4,5-dihydro-1H-pyrazol-1-yl)((R)-3-((6-methoxypyridin-2-yl)oxy)pyrrolidin-1-yl)methanone] | 6.00 to 9.00
O=C(N1CCN(c2ncc(F)c(OCCN3CCOCC3)n2)CC1)N1N=CC[C@H]1c1cc(F)cc(F)c1 [Compound 287, (S)-(5-(3,5-difluorophenyl)-4,5-dihydro-H-pyrazol-1-yl)(4-(5-fluoro-4-(2-morpholinoethoxy)pyrimidin-2-yl)piperazin-1-yl)methanone] | 6.00 to 9.00
O=C(N1CC(Oc2ccc(F)cn2)C1)N1N=CCC1c1cc(F)cc(F)c1 (stereo not drawn) [Compound 212, (5-(3,5-difluorophenyl)-4,5-dihydro-1H-pyrazol-1-yl)(3-((5-fluoropyridin-2-yl)oxy)azetidin-1-yl)methanone] | 6.00 to 9.00
NC(=O)c1ccc(F)cc1C=C1CN(C(=O)N2N=CC[C@H]2c2cc(F)cc(F)c2)C1 [Compound 320, (S)-2-((1-(5-(3,5-difluorophenyl)-4,5-dihydro-1H-pyrazole-1-carbonyl)azetidin-3-ylidene)methyl)-4-fluorobenzamide] | 6.00 to 9.00
CN(C(=O)OC(C)(C)C)c1nccc(O[C@@H]2CCN(C(=O)N3N=CC[C@H]3c3cc(F)cc(F)c3)C2)n1 [Compound 366, tert-butyl (4-(((R)1-((S)-5-(3,5-difluorophenyl)-4,5-dihydro-1H-pyrazole-1-carbonyl)pyrrolidin-3-yl)oxy)pyrimidin-2-yl)(methyl)carbamate] | 6.00 to 9.00
N#Cc1cccc(C2CC=NN2C(=O)N2CC(Oc3cc4[nH]nc(F)c4cc3F)C2)c1 (stereo not drawn) [Compound 380, 3-(1-(3-((3,5-difluoro-1H-indazol-6-yl)oxy)azetidine-1-carbonyl)-4,5-dihydro-1H-pyrazol-5-yl)benzonitrile] | 6.00 to 9.00
O=C(N1CC(=Cc2cc(F)ncc2F)C1)N1N=CC[C@H]1c1cc(F)cc(F)c1 [Compound 329] | 6.00 to 9.00

— patent US12662469B2 (SIRONAX LTD, priority 2018, dated 2026)
